# According to PMC10584170, “Machine learning-based phenotypic imaging to characterise the targetable biology of Plasmodium falciparum male gametocytes for the development of transmission-blocking antimalarials” (PLOS Pathogens, 2023):
# Where two headings read alike, the source gives them in different places.
# Assays:
# [1] = test system: P. falciparum female gametocytes; experiment: P. falciparum Dual Gamete Formation Assay (PfDGFA), female readout (Pfs25-positive female gametes); format: cell-based, Plasmodium falciparum NF54; details: for Selectivity ratio F: HepG2 Tox50 versus female IC50; for Average inhibition female (%) / % inhibition female (individual replicates) R1 / % inhibition female (individual replicates) R3 / % inhibition female (individual replicates) R4 / inhibition at 2 µM: 24h preincubation with gametocytes; for IC50: PfDGFA, 24 h incubation with gametocytes before induction, female gamete readout, read-out: Female IC50; for HitlevelF: number of replicates with >50% inhibition in the female readout
# Outline: (§1)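 Male and female gamete formation were quantified by microscopy image analysis following 24 h incubation of mature NF54 gametocytes with compound and activation at 28°C with xanthurenic acid.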
# [2] = test system: HepG2 cells; experiment: HepG2 cytotoxicity counter-screen; details: cytotoxic activity against HepG2 cells
# [3] = test system: P. falciparum male gametocytes; experiment: P. falciparum Dual Gamete Formation Assay (PfDGFA), male readout (exflagellation); format: cell-based, Plasmodium falciparum NF54; details: for Selectivity Ratio M: HepG2 Tox50 versus male IC50; for Average inhibition male (%) / % inhibition male (individual replicates) R1 / % inhibition male (individual replicates) R3 / % inhibition male (individual replicates) R4 / inhibition at 2 µM: 24h preincubation with gametocytes; for IC50: PfDGFA, 24 h incubation with gametocytes before induction, exflagellation readout, read-out: Male IC50; for HitlevelM: number of replicates with >50% inhibition in the male readout
# Outline: as §1
# [4] = PfDGFA at 2µM, average of replicates
SMILES,IC50 [1],IC50 [3],IC50 ([1]; Plasmodium falciparum),IC50 ([3]; Plasmodium falciparum),Selectivity ratio F [1],HitlevelF ([1]; 2µM),Tox50 [2],Selectivity Ratio M [3],HitlevelM ([3]; 2µM),"Average inhibition female (%) ([1]; 2µM, average of replicates)","% inhibition female (individual replicates) R1 ([1]; 2µM, replicate R1)","% inhibition female (individual replicates) R3 ([1]; 2µM, replicate R3)","% inhibition female (individual replicates) R4 ([1]; 2µM, replicate R4)","Average inhibition male (%) ([3]; 2µM, average of replicates)","% inhibition male (individual replicates) R1 ([3]; 2µM, replicate R1)","% inhibition male (individual replicates) R3 ([3]; 2µM, replicate R3)","% inhibition male (individual replicates) R4 ([3]; 2µM, replicate R4)",further results
N=C(N)Nc1nc(-c2ccc(NCc3ccc(CNc4cccc(-c5csc(NC(=N)N)n5)c4)cc3)cc2)cs1 [TCMDC-140699],2.17 µM,0.76 µM,,,2.7,,5.85 µM,7.68,,56.1%,34.4%,32.5%,82.5%,99.5%,99.4%,98.0%,98.9%,
CN(C)CCCOc1ccc(CN2CCC(c3c[nH]c4ccc(NCC5CCCCC5)cc34)CC2)cc1.O=C(O)C(F)(F)F [TCMDC-140737],4.94 µM,1.34 µM,,,1.66,,8.22 µM,6.13,,62.2%,56.9%,56.2%,81.1%,93.4%,100.1%,96.2%,94.6%,

# Second part, led by results:
IC50 [1],IC50 [3],IC50 ([1]; Plasmodium falciparum),IC50 ([3]; Plasmodium falciparum),SMILES,Selectivity ratio F [1],HitlevelF ([1]; 2µM),Tox50 [2],Selectivity Ratio M [3],HitlevelM ([3]; 2µM),"Average inhibition female (%) ([1]; 2µM, average of replicates)","% inhibition female (individual replicates) R1 ([1]; 2µM, replicate R1)","% inhibition female (individual replicates) R3 ([1]; 2µM, replicate R3)","% inhibition female (individual replicates) R4 ([1]; 2µM, replicate R4)","Average inhibition male (%) ([3]; 2µM, average of replicates)","% inhibition male (individual replicates) R1 ([3]; 2µM, replicate R1)","% inhibition male (individual replicates) R3 ([3]; 2µM, replicate R3)","% inhibition male (individual replicates) R4 ([3]; 2µM, replicate R4)",further results
3.7 µM,1.53 µM,,,CN(CCCCN)Cc1ccc(-c2ccc(Cl)cc2)cc1 [TCMDC-140123],1.81,0,6.69 µM,4.36,4,,,,,,,,,"Average inhibition female (%) [1, 4]: 20.6%; % inhibition female (individual replicates) R1 ([1]; PfDGFA at 2µM, replicate R1): 26.7%; % inhibition female (individual replicates) R3 ([1]; PfDGFA at 2µM, replicate R3): 14.8%; % inhibition female (individual replicates) R4 ([1]; PfDGFA at 2µM, replicate R4): 10.1%; Average inhibition male (%) [3, 4]: 72.2%; % inhibition male (individual replicates) R1 ([3]; PfDGFA at 2µM, replicate R1): 73.4%; % inhibition male (individual replicates) R3 ([3]; PfDGFA at 2µM, replicate R3): 55.2%; % inhibition male (individual replicates) R4 ([3]; PfDGFA at 2µM, replicate R4): 83.6%"
,,1.61 µM,1.77 µM,COc1cc(-c2nc(C(C)(C)CN)[nH]c2-c2ccncc2)ccc1Br.Cl [TCMDC-140674],27.17,2,43.66 µM,24.67,3,,,,,,,,,"inhibition at 2 µM ([1]; Plasmodium falciparum, PfDGFA at 2µM, average of replicates, read-out: Average inhibition female (%)): 51.9%; inhibition at 2 µM ([1]; Plasmodium falciparum, PfDGFA at 2µM, replicate R1, read-out: % inhibition female (individual replicates) R1): 32.2%; inhibition at 2 µM ([1]; Plasmodium falciparum, PfDGFA at 2µM, replicate R2, read-out: % inhibition female (individual replicates) R2): 85.8%; inhibition at 2 µM ([1]; Plasmodium falciparum, PfDGFA at 2µM, replicate R3, read-out: % inhibition female (individual replicates) R3): 16.6%; inhibition at 2 µM ([1]; Plasmodium falciparum, PfDGFA at 2µM, replicate R4, read-out: % inhibition female (individual replicates) R4): 72.9%; inhibition at 2 µM ([3]; Plasmodium falciparum, PfDGFA at 2µM, average of replicates, read-out: Average inhibition male (%)): 80.4%; inhibition at 2 µM ([3]; Plasmodium falciparum, PfDGFA at 2µM, replicate R1, read-out: % inhibition male (individual replicates) R1): 38.8%; inhibition at 2 µM ([3]; Plasmodium falciparum, PfDGFA at 2µM, replicate R2, read-out: % inhibition male (individual replicates) R2): 100%; inhibition at 2 µM ([3]; Plasmodium falciparum, PfDGFA at 2µM, replicate R3, read-out: % inhibition male (individual replicates) R3): 83.7%; inhibition at 2 µM ([3]; Plasmodium falciparum, PfDGFA at 2µM, replicate R4, read-out: % inhibition male (individual replicates) R4): 98.9%"
,,7.16 µM,0.85 µM,CCN(CC)CCN(Cc1ccc(-c2ccc(C(F)(F)F)cc2)cc1)C(=O)Cn1cc(Cc2cnn(C)c2)c(=O)nc1/C=C/c1ccc(F)cc1.O=C(O)C(O)C(O)C(=O)O [TCMDC-140741],2.29,,16.37 µM,19.3,,,,,,,,,,"inhibition at 2 µM ([1]; Plasmodium falciparum, 2µM, average of replicates, read-out: Average inhibition female (%)): 44.8%; inhibition at 2 µM ([1]; Plasmodium falciparum, 2µM, replicate R1, read-out: % inhibition female (individual replicates) R1): 41.2%; inhibition at 2 µM ([1]; Plasmodium falciparum, 2µM, replicate R2, read-out: % inhibition female (individual replicates) R2): 41.2%; inhibition at 2 µM ([1]; Plasmodium falciparum, 2µM, replicate R3, read-out: % inhibition female (individual replicates) R3): 34.9%; inhibition at 2 µM ([1]; Plasmodium falciparum, 2µM, replicate R4, read-out: % inhibition female (individual replicates) R4): 61.9%; inhibition at 2 µM ([3]; Plasmodium falciparum, 2µM, average of replicates, read-out: Average inhibition male (%)): 90.1%; inhibition at 2 µM ([3]; Plasmodium falciparum, 2µM, replicate R1, read-out: % inhibition male (individual replicates) R1): 92.2%; inhibition at 2 µM ([3]; Plasmodium falciparum, 2µM, replicate R2, read-out: % inhibition male (individual replicates) R2): 91.9%; inhibition at 2 µM ([3]; Plasmodium falciparum, 2µM, replicate R3, read-out: % inhibition male (individual replicates) R3): 76%; inhibition at 2 µM ([3]; Plasmodium falciparum, 2µM, replicate R4, read-out: % inhibition male (individual replicates) R4): 100%"
